What was measured:
[1] = In vivo antagonist activity at Androgen receptor assessed as reduction in wax ester in golden hamster ear model; format: functional, Cricetinae; design: concentration or dose not given beside the values
Androgen receptor [2] = target: T1, Androgen receptor (Homo sapiens, UniProt P10275); assay: Antagonist activity at Androgen receptor in human MDA-kb2 cells; format: cell-based
T1 sequence (P10275 whole entry): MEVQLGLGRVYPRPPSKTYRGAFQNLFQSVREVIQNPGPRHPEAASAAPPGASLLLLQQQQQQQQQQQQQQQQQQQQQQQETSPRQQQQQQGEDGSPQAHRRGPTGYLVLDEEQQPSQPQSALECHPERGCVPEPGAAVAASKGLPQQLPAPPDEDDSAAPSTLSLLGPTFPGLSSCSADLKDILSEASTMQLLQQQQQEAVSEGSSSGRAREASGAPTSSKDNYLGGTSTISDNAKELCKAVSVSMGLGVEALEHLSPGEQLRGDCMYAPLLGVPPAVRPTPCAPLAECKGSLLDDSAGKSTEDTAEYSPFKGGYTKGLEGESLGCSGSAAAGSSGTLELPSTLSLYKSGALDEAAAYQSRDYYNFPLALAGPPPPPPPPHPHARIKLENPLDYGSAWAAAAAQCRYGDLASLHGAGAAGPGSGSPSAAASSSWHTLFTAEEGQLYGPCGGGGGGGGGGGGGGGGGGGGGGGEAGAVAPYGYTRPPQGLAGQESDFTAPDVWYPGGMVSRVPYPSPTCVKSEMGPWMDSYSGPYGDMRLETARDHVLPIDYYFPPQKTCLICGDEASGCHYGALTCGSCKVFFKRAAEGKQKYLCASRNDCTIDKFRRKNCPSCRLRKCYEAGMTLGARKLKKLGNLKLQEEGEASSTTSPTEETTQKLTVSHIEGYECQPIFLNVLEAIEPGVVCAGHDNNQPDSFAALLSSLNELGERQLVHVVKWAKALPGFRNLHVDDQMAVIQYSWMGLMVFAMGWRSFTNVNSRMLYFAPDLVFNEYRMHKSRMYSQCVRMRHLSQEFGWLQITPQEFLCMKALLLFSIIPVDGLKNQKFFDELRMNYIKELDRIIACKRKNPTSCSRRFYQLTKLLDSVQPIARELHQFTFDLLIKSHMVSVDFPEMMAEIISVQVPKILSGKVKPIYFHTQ

Androgen receptor [3] = target: T1, Androgen receptor; assay: Binding affinity to human Androgen receptor
[4] = Antiproliferative activity against refractory human prostate cancer cells; format: functional, cell-based; details: Prostate tumor cell line
Androgen receptor [5] = target: T1, Androgen receptor; assay: Antagonist activity at Androgen receptor in human MDA-MB-453 cells measured by SEAP reporter gene assay; format: cell-based
Androgen receptor [6] = target: T1, Androgen receptor; assay: Antagonist activity at Androgen receptor in human LNCaP cells measured by SEAP reporter gene assay; format: cell-based
Androgen receptor [7] = target: T1, Androgen receptor; assay: Displacement of [3H]DHT from Androgen receptor expressed in human MDA-MB-453 cells; format: cell-based
[8] = target: T2, Androgen receptor (Homo sapiens) (UniProt P10275); assay: Induction of degradation of Androgen receptor in human LNCaP cells; format: cell-based
T2 sequence (whole entry): T1 sequence (P10275 whole entry)

Androgen receptor [9] = target: Androgen receptor (Mus musculus, UniProt P19091); assay: Agonist activity at Androgen receptor (unknown origin) transfected in mouse C2C12 cells measured by luciferase reporter assay; format: cell-based
LNCaP = assay: Antiproliferative activity against human LNCaP cells; format: functional, cell-based
Androgen receptor [10] = target: T1, Androgen receptor; assay: Agonist activity at human Androgen receptor
[11] = Oral bioavailability in mouse; format: ADME, organism-based; details: in vivo
[12] = target: T3, Protein cereblon/Androgen receptor/Cullin-4A (Homo sapiens, UniProt P10275+Q96SW2+Q13619); assay: Protac activity at CRBN/Cullin 4A/Androgen receptor in human LNCaP cells assessed as Androgen receptor degradation; format: cell-based
[13] = target: T3, Protein cereblon/Androgen receptor/Cullin-4A; assay: Protac activity at CRBN/Cullin 4A/Androgen receptor in human VCaP cells assessed as Androgen receptor degradation; format: cell-based
[14] = target: GABA-A receptor; anion channel; assay: Binding affinity to GABA A receptor (unknown origin); format: protein-complex assay, Homo sapiens
[15] = target: T2, Androgen receptor (Homo sapiens); assay: Agonist activity at androgen receptor (unknown origin) at 1 uM relative to control; details: filed as agonist
[16] = In vivo agonist activity at Androgen receptor in castrated male rat assessed as increase in prostate weight at 0.75 mg/kg, po administered for 14 days; format: functional; details: time 14 day
[17] = In vivo agonist activity at Androgen receptor in castrated male rat assessed as increase in levator ani muscle weight at 0.75 mg/kg, po administered for 14 days; format: functional; details: time 14 day
Androgen receptor [18] = target: T1, Androgen receptor; assay: Binding affinity to Androgen receptor (unknown origin); details: read-out: IC50
Androgen receptor [19] = target: T1, Androgen receptor; assay: Partial agonist activity at human Androgen receptor
[20] = target: T2, Androgen receptor (Homo sapiens); assay: Induction of degradation of Androgen receptor (unknown origin) at 7.5 uM
[21] = system: Androgen receptor (Homo sapiens), P10275 [UNDEFINED MUTATION]; assay: Induction of degradation of Androgen receptor splice variant 3 (unknown origin) at 7.5 uM
Androgen receptor [22] = target: T1, Androgen receptor; assay: Agonist activity to human Androgen receptor in African green monkey COS-7 cells measured by luciferase reporter assay; format: cell-based
Rattus norvegicus = assay: Anti-androgenic activity in testosterone-treated castrated rat assessed as reduction in prostate weight at 2 mg administered orally per day for 5 days; format: functional; design: Activity: scale not given: the % may be the effect or the level left; details: route po, time 5 day; for Activity: at 2 mg
Androgen receptor [23] = target: Androgen receptor (Homo sapiens, UniProt P10275, T878A); assay: Binding affinity to bicalutamide-resistant Androgen receptor T878A mutant (unknown origin)
SC-3 = assay: Antiproliferative activity against mouse SC-3 cells; format: functional, cell-based

T3 sequence (Q96SW2 whole entry, one chain of several): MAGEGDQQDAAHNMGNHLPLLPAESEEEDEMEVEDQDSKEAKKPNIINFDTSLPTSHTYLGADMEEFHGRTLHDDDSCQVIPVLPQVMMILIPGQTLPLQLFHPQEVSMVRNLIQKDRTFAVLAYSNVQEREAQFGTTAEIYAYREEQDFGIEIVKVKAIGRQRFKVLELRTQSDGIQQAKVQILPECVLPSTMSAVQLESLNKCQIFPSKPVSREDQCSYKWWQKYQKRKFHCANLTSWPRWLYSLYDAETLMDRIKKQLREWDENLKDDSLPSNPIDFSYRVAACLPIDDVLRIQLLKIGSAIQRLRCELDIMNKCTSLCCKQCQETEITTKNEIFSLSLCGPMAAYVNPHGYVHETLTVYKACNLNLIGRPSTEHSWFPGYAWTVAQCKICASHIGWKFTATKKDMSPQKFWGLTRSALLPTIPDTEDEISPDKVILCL
T3 sequence (Q13619 whole entry, one chain of several): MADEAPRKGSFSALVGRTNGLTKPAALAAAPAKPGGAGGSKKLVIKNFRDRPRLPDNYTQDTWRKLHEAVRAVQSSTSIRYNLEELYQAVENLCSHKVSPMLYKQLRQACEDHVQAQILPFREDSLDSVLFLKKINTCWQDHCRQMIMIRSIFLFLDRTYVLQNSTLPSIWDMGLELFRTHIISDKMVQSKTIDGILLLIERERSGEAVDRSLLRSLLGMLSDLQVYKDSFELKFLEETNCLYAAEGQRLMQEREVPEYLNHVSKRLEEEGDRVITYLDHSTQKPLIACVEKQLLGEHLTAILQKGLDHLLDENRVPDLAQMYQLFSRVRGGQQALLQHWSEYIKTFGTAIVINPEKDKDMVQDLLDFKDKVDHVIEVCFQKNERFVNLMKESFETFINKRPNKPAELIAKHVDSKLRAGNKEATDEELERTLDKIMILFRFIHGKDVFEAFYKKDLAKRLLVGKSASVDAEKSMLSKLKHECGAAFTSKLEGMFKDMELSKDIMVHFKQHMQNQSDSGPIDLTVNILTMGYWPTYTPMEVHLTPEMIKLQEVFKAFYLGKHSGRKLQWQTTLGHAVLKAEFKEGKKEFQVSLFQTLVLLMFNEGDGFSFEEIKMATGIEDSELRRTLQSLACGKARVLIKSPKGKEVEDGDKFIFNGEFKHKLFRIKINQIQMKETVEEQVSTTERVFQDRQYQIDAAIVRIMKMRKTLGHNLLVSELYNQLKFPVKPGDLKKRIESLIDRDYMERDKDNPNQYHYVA
Chain of Androgen receptor (Mus musculus, UniProt P19091) (P19091 whole entry): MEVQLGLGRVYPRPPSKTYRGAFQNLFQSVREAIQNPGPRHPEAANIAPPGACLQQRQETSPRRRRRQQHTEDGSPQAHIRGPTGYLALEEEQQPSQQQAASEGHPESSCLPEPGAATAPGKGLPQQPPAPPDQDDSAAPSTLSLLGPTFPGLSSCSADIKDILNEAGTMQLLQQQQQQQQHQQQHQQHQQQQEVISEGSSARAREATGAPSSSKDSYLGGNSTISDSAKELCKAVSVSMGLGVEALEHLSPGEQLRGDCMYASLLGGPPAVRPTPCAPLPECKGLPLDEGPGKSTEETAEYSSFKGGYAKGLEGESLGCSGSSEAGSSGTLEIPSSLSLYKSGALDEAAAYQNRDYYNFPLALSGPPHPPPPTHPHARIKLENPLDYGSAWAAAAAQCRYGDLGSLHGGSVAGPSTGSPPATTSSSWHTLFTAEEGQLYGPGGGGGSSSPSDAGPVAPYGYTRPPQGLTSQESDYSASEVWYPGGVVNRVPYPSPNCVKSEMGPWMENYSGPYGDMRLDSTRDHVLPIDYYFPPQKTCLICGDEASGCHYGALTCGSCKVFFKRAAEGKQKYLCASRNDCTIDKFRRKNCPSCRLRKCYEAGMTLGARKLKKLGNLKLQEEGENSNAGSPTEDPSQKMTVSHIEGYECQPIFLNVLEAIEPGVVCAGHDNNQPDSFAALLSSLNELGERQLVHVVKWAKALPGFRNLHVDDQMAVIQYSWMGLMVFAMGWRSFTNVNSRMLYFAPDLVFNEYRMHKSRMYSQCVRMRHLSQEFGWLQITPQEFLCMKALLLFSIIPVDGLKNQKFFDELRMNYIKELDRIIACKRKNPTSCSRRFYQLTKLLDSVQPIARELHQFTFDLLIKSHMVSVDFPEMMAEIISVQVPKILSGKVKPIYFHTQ
Chain of Androgen receptor (Homo sapiens, UniProt P10275, T878A) (P10275 whole entry T878A): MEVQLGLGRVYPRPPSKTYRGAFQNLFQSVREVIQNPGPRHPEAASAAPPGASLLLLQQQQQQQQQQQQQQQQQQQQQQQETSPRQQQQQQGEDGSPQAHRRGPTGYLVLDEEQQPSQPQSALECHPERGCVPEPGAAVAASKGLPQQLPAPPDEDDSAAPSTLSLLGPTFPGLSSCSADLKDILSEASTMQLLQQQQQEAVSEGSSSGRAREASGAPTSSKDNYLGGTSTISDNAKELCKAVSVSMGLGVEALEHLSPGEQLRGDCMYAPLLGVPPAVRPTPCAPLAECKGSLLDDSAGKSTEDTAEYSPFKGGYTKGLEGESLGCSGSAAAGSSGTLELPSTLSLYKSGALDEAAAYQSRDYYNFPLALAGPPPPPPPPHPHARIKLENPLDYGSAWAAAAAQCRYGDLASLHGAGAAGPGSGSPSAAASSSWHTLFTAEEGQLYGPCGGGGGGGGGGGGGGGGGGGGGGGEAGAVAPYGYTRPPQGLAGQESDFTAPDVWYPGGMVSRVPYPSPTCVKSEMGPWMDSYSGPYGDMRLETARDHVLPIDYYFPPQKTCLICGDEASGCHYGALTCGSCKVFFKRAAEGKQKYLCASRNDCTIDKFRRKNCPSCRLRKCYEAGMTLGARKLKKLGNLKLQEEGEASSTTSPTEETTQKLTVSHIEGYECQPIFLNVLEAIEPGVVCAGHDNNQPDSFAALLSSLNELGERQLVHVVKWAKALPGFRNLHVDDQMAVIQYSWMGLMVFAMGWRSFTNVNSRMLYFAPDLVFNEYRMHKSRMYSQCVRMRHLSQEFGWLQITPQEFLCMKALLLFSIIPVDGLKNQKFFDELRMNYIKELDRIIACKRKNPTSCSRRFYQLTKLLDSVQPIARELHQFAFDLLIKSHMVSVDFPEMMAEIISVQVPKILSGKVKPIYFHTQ

Compound: CC(c1ccccc1)N(C)c1ccc(C#N)c(C(F)(F)F)n1 (stereo not drawn)
- Activity [1]: 83%
- IC50 (Androgen receptor [2]): 45 nM
- IC50 (Androgen receptor [3]): 20 nM

Compound: COc1cc(N2C(=O)C(C)(C)c3cc(-c4cccnc4OC)ccc32)ccc1C#N
- IC50 [4]: 79.6 nM

Compound: CC(C)N1C[C@@]2(C)O[C@](C)(C1)[C@H]1C(=O)N(c3ccc(C#N)c(C(F)(F)F)c3)C(=O)[C@H]12
- IC50 (Androgen receptor [5]): 32 nM
- IC50 (Androgen receptor [6]): 125 nM
- Ki (Androgen receptor [7]): 14 nM

Compound: CC1(C)C(=O)N(c2ccc(C#N)c(C(F)(F)F)c2)C(=S)N1CCCC(=O)NCCOCCOC(=O)CC12CC3CC(CC(C3)C1)C2
- Activity [8]: > 50%

Compound: Cc1c(N2C(=O)[C@@H]3[C@H](O)CCN3C2=O)ccc(C#N)c1Cl
- EC50 (Androgen receptor [9]): 2.3 nM

Compound: CC1(C)C(=O)N(c2ccc(C#N)c(Cl)c2)C(=S)N1CCCS(N)(=O)=O
- IC50 (LNCaP): 410 nM

Compound: CC(C)(C)OC(=O)c1cccc2oc(=O)c3c(ccc4[nH]c(=O)cc(C(F)(F)F)c43)c12
- EC50 (Androgen receptor [10]): 1.1 nM
- Ki (Androgen receptor [3]): 8.7 nM

Compound: CN(c1ccc(C#N)c(Cl)c1)[C@H]1CC[C@H](NC(=O)c2ccc(N3CCN(C4CN(c5ccc6c(c5)C(=O)N(C5CCC(=O)NC5=O)C6=O)C4)CC3)cc2)CC1 (stereo partly drawn)
- bioavailability [11]: 51%
- DC50 [12]: < 0.1 nM
- DC50 [13]: < 0.1 nM

Compound: CNC(=O)c1ccc(N2C(=S)N(c3ccc(C#N)c(C(F)(F)F)c3)C(=O)C2(C)C)cc1F [ENZALUTAMIDE]
- IC50 [14]: 3 µM
- IC50 (LNCaP): 36 nM

Compound: CC1(C)CN(CCC#N)C(=O)[C@@H]1Oc1ccc(C#N)c(Cl)c1
- Activity [15]: 89%

Compound: Cc1c(N2C3CCC2CC(C)(O)C3)ccc(C#N)c1Cl (stereo not drawn)
- Activity [16]: 21%
- Activity [17]: 68%
- IC50 (Androgen receptor [3]): 1 nM

Compound: N#CCC(O)(c1nc2cc(Cl)c(Cl)cc2[nH]1)C(F)(F)F (stereo not drawn)
- IC50 (Androgen receptor [18]): 2 nM

Compound: C[C@@]1(c2ccc(O)cc2)NC(=O)N(c2ccc(C#N)c(C(F)(F)F)c2)C1=O
- IC50 (Androgen receptor [19]): 0.9 nM

Compound: COc1ccc(/C=C/C(=O)/C=C(O)/C=C/c2ccc(OC)c(OC)c2)cc1OC
- Activity [20]: > 80%
- Activity [21]: > 80%

Compound: Cc1c(N2CC[C@](C)(O)[C@@H]2C)ccc(C#N)c1Cl
- IC50 (Androgen receptor [3]): 1 nM
- EC50 (Androgen receptor [22]): 0.29 nM

Compound: Cc1c(C(C)(O)C(F)(F)F)[nH]c2cc(C(F)(F)F)c(C#N)cc12 (stereo not drawn)
- ID50 (Rattus norvegicus): 0.13 mg/day
- Activity (Rattus norvegicus): 80%

Compound: N#Cc1ccc(N2C(=O)N[C@@](CO)(c3ccccc3)C2=O)cc1C(F)(F)F
- IC50 (Androgen receptor [19]): 13 nM

Compound: Cn1cc(N(Cc2ccccc2)c2ccc([N+](=O)[O-])cc2)cc1C(=O)N1CCCC1
- Ki (Androgen receptor [23]): 6 nM
- IC50 (SC-3): 440 nM

Compound: CC(O)(C[S+]([O-])c1ccc(Cl)c(Cl)c1)c1cc2cc(Cl)c(C(F)(F)F)cc2[nH]1 (stereo not drawn)
- IC50 (Androgen receptor [18]): 100 nM

Compound: CC(O)(c1nc2cc(Cl)c(Cl)cc2[nH]1)C(F)(F)F (stereo not drawn)
- ID50 (Rattus norvegicus): 0.32 mg/day
- Activity (Rattus norvegicus): 96%

Compound: C[C@@]12O[C@@](C)(C[C@H]1O)[C@@H]1C(=O)N(c3ccc(C#N)c(I)c3)C(=O)[C@@H]12
- IC50 (Androgen receptor [5]): 19 nM
- Ki (Androgen receptor [7]): 2.4 nM

Compound: O=c1[nH]nc(Cc2c(Cl)cccc2Cl)c2ccccc12
- IC50 (SC-3): 180 nM
- IC50 (LNCaP): 560 nM

Compound: Cc1ccccc1Oc1ccc(C#N)c(Cl)c1
- Activity [1]: >87%

Compound: CCCCc1ccc(OC(=O)N2C[C@@H]3C[C@H]2[C@@H]2C(=O)N(c4ccc([N+](=O)[O-])c5ccccc45)C(=O)N32)cc1
- IC50 (Androgen receptor [5]): 60 nM
- IC50 (Androgen receptor [6]): 4750 nM
- Ki (Androgen receptor [7]): 73 nM

Reference: ChEMBL document CHEMBL5137058, “Therapeutic Strategies to Target the Androgen Receptor” (J Med Chem, 2022)
